# Experimental data reported in patent US9974763B2, “Modulators of intracellular chloride concentration for treating neurodegenerative diseases with Parkinsonian Syndromes” (B & A THERAPEUTICS, priority 2013, dated 2018).
# Read-outs that look alike come from different tables or passages of the source.
# Legend:
# [1] = test system: GABAA sPSCs in Medium Spiny Neurons (MSNs) of the striatum in Pink 1 knockout mice; test: Whole-cell voltage-clamp recordings of spontaneous GABAA currents in basal ganglia slices before and during bath application of bumetanide; assay type: cell-based, mouse; details: for effect on the giant GABAergic pattern (in words): 10 μM; for area gigantic pattern (% of the total area) / giant GABAA sPSCs share of total current charge, Mean: before bumetanide 38±5%; for Giants Amplitude, Mean: P=0.01 vs before bumetanide
# Procedure: Pink 1 knockout (Pink1 −/−) mouse is a genetic model of Parkinson's disease.
# Pink1 −/− mutant mice of either sex at age 5-7 months were intracardially perfused with the choline solution (see below) at 4° C. and sacrificed by decapitation under halothane anesthesia. Oblique parasagittal slices (380 μm thick) were cut with an angle of 10±2° to obtain the basal ganglia slice (BGS) as described in (Beurrier et al., 2006). For the slicing procedure, the ice-cold oxygenated solution contained (in mM) 110 choline, 2.5 KCl, 1.25 NaH2PO4, 7 MgCl2, 0.5 CaCl2, 25 NaHCO3, 7 glucose. During the recovery period, BGS were placed at room temperature with standard artificial cerebrospinal fluid (ACSF) saturated with 95% O2 5% CO2 and containing (in mM): 126 NaCl, 3.5 KCl, 1.2 NaH2PO4, 1.3 MgCl2, 2 CaCl2, 25 NaHCO3, 11 glucose.
# All recordings were made at 32° C. Cells were visualized with infrared-differential interference optics (Axioskop2, Zeiss). For whole-cell voltage-clamp recordings of postsynaptic GABAA currents, the pipette (6-10 MΩ) contained (in mM): 128.5 K-gluconate, 11.5 KCl, 1 CaCl2, 10 EGTA, 10 HEPES, 2.5 MgATP and 0.3 NaGTP, pH 7.32, 280 mOsm. The KGlu pipette solutions gave a reversal potential for chloride close to −63 mV at 35° C. Biocytin (Sigma, 5 mg/ml) was added to the pipette solution and osmolarity corrected when necessary. We performed patch-clamp recordings in whole cell configuration using the Digidata 1344A interface, the Multiclamp 700A amplifier and PClamp8 software (Axon Instruments, Foster City, Calif.). We identified medium spiny neurons (MSNs) during recordings based on their typical rectification during hyperpolarizing steps and their firing delay in response to depolarizing steps. MSNs were also identified by their morphological characteristics after the recording session (see immunocytochemistry). We measured spontaneous GABAA currents (GABAA sPSCs) from MSNs in voltage clamp mode at the reversal potential for glutamatergic (+10 mV) events (Cossart et al., 2000). These currents were stored on Pclamp8 (Axon Instruments, Foster City, Calif., USA) and analyzed off-line with Mini Analysis program (Synaptosoft 6.0, CA, USA), Clampfit 9.2, Origin 5.0 and Autosignal 1.7 to determine the frequency and amplitude of GABAA sPSCs. All detected currents were then visually inspected to reject artefactual events.
# We defined as a burst a minimum of five sPSCs associated with a baseline elevation. More than five giant events and three bursts were required during the three min analysis for the pattern to be deemed “oscillatory”. The current charge was automatically calculated by the Mini Analysis Software as the area under the curve value (taking the onset, peak and decay time points as references for each event).
# GABAA sPSCs were recorded from identified MSNs before and during bath application of Bumetanide.
# For statistical comparison of data we performed paired t-tests. Error bars indicate SEM. ***P<0.001; ns (non-significant).
# [2] = test system: patient suffering from Parkinson's disease; details: for UPDRS motor severity score (III) in the OFF stage: after 2 months of bumetanide, last four weeks at 5 mg/d; for UPDRS II OFF (activities of daily leaving, worst condition) score: at the end of the study
# From the text: A person, suffering from a 10-year history of Parkinson's disease was included in an open-labeled trial assessing the antiparkinsonian effects of bumetanide. They gave their informed consent to participate. The patient fulfilled the modified Queen's Square Brain Bank criteria of Parkinson's disease (Berardelli et al., 2013). […] Parkinson's disease was at the stage of motor fluctuation and dyskinesia. The OFF periods (bad mobility) lasted for an average of 25-50% of the awakened time. Dyskinesia was mild and intermittent. There was no marked balance impairment or cognitive decline. Antiparkinsonian treatment consisted in: L-DOPA 1,200 mg/d (7 intakes/d), ropinirole 4 mg/d, rasagiline 1 mg/d, tolcapone 300 mg/d. They also received mianserine, citalopram and alprazolam for concomitant anxiety and depression. Bumetanide was progressively titrated up to 3 mg/d (once daily) received for a month. […] The patient was assessed before, 1 month and 2 months after the initiation of bumetanide. At each visit, the patient was asked about any side effects having occurred since the last visit. […] The antiparkinsonian treatment was unchanged during the study. A person, having a 8-year history of Parkinson's disease was included in an open-labeled trial assessing the antiparkinsonian effects of bumetanide. The OFF periods (bad mobility) lasted for an average of 25-50% of the awakened time. Antiparkinsonian treatment consisted in: L-DOPA 625 mg/day (5 intakes/day), entacapone 1,000 mg/day, ropinirole 12 mg/day. Bumetanide: was progressively titrated up to 3 mg/day (once daily) received for a month. […] The patients were assessed before, 1 month and 2 months after the initiation of bumetanide. At each visit, the patient was asked about any side effects having occurred since the last visit. […] The antiparkinsonian treatment was unchanged during the study.
# [3] = test system: GABAA sPSCs in Medium Spiny Neurons (MSNs) of the striatum in Pink 1 knockout mice; details: Dehorter et al 2012; cited from earlier work
# [4] = bumetanide 10 μM, 15-30 min, Pink1 KO MSNs
# [5] = bumetanide 10 μM, 15-30 min, Pink1 KO MSNs, listed as Bume
# [6] = bumetanide 10 μM, 15-30 min, n=42 events
# [7] = bumetanide 10 μM, 15-30 min, three min analysis
smiles,measurement,setting,value
"CCCCNc1cc(C(=O)O)cc(S(N)(=O)=O)c1Oc1ccccc1 [Bumetanide, bumetanide]",effect on the giant GABAergic pattern (in words),"[1]; 15-30 min, Pink1 KO MSNs",blocked the giant pattern
same,effect on the giant GABAergic pattern (in words),"[1]; 15-30 min, Pink1 KO MSNs, listed as bumetanide",block these gigantic currents completely
same,time of treatment after which the effect was stable,"[1]; bath application, final concentration 10 μM",15 min
same,"TOTAL AREA, Mean","[1]; bumetanide 10 μM bath, 15-30 min, Pink1 KO MSNs with giant pattern, VH=+10 mV",290 pA · ms
same,Pink1 KO MSNs showing giant GABAA PSCs in which the block was observed,"[1]; bumetanide 10 μM, 15-30 min",10/10
same,effect on bursts of GABAA sPSCs (in words),"[1]; bumetanide 10 μM, 15-30 min",totally disappeared
same,mean frequency of single giant GABAA sPSCs,"[1]; bumetanide 10 μM, 15-30 min, P=0.02 vs before bumetanide",0.10±0.05 Hz
same,"Tonic pattern: Amplitude of GABAA PSCs, Mean",[1]; [4],36±4 pA
same,"Tonic pattern: Frequency of GABAA PSCs, Mean",[1]; [4],2.9±0.5 Hz
same,mean total current charge,"[1]; bumetanide 10 μM, 15-30 min, Pink1 KO MSNs, before bumetanide 566±74",290±70 nA·ms
same,"Tonic pattern: Amplitude of GABAA PSCs, Mean",[1]; [5],36.0 pA
same,"Tonic pattern: Frequency of GABAA PSCs, Mean",[1]; [5],2.9 Hz
same,"basal events between giants, share of the total current charge","[1]; bumetanide 10 μM, 15-30 min, before 62±5%, P=0.0003",90±3%
same,"area gigantic pattern (% of the total area) / giant GABAA sPSCs share of total current charge, Mean","[1]; bumetanide 10 μM, 15-30 min, P=0.0003",11.7±3.9%
same,"area gigantic pattern (% of the total area) / giant GABAA sPSCs share of total current charge, Mean","[1]; bumetanide 10 μM, 15-30 min, P=0.0003, listed as Bume",11.7%
same,range of amplitude of single giant GABAA sPSCs,[1]; [6],203-593 pA
same,"Giants Amplitude, Mean",[1]; [6],338.2±22.5 pA
same,"Giants Amplitude, Mean","[1]; bumetanide 10 μM, 15-30 min, n=42 events, listed as Bume",338.2 pA
same,"Giants Frequency, Mean","[1]; bumetanide 10 μM, 15-30 min, table value, unit not given",0.10
same,"n bursts, Mean",[1]; [7],0.2
same,"n giants (>200 pA), Mean",[1]; [7],5.6
same,decrease of the mean total current charge,"[1]; bumetanide 10 μM, 15-30 min vs before bumetanide, P=0.0002",49%
same,number of individual giant GABAA sPSCs still present during the three-minutes sequence analyzed,"[1]; bumetanide 10 μM, versus 237 before bumetanide",42 events
same,dyskinesia,"[2]; human, in vivo",no worsening
same,overall improvement evaluated by the patient and the caregiver,[2]; patient 1,about 30%
same,improvement (decrease) of UPDRS motor (III) score in the OFF stage,"[2]; patient 1, 2 months vs before treatment",34%
same,UPDRS motor severity score (III) in the OFF stage,"[2]; patient 1, 44 before treatment",29
same,motor condition / Parkinsonism as noticed by the patient and their caregiver,"[2]; patient 1, after 2 weeks at 5 mg/d",marked improvement
same,OFF time duration,"[2]; patient 1, after 2 weeks at 5 mg/d, baseline 25-50%",less than 25 % of the awakened time
same,"UPDRS II OFF (activities of daily leaving, worst condition) score","[2]; patient 1, 30 at baseline",18
same,improvement (decrease) of UPDRS II in the worst condition,"[2]; patient 1, end of study vs baseline",40%
same,UPDRS II in the best condition,"[2]; patient 1, score 0",unchanged
same,improvement of UPDRS motor severity score (III) in the OFF stage,"[2]; patient 2, 2 months vs before treatment",56%
same,UPDRS II in the best condition,"[2]; patient 2, 2 vs 3",unchanged
same,UPDRS motor severity score (III) in the OFF stage,"[2]; patient 2, 25 before treatment",11
same,"UPDRS II OFF (activities of daily leaving, worst condition) score","[2]; patient 2, 15 at baseline",10
same,improvement of UPDRS II in the worst condition,"[2]; patient 2, end of study vs baseline",33%
N[C@@H](Cc1ccc(O)c(O)c1)C(=O)O [L Dopa],effect on the gigantic current pattern (in words),[3],alleviate this pattern
